Patent US11702411B2, “Pyridine, pyrazine, and triazine compounds as allosteric SHP2 inhibitors” (Revolution Medicines, Inc., priority 2017, dated 2023)

target: SHP2 (Homo sapiens (Human), UniProt Q06124); assay: SHP2 allosteric inhibition assay (DiFMUP prompt fluorescence, activating peptide); assay type: biochemical; settings: 0.2 nM SHP2, 0.5 μM activating peptide, DiFMUP substrate; read-out: SHP2 Allosteric IC50
Excerpt: Without wishing to be bound by theory, SHP is allosterically activated through binding of bis-tyrosyl-phosphorylated peptides to its Src Homology 2 (SH2) domains. The latter activation step leads to the release of the auto-inhibitory interface of SHP2, which in turn renders the SHP2 protein tyrosine phosphatase (PTP) active and available for substrate recognition and reaction catalysis. The catalytic activity of SHP2 was monitored using the surrogate substrate DiFMUP in a prompt fluorescence assay format.
The phosphatase reactions were performed at room temperature in 96-well black polystyrene plate, flat bottom, non-binding surface (Corning, Cat #3650) using a final reaction volume of 100 μL and the following assay buffer conditions: 50 mM HEPES, pH 7.2, 100 mM NaCl, 0.5 mM EDTA, 0.05% P-20, 1 mM DTT.
The inhibition of SHP2 by compounds of the present disclosure (concentrations varying from 0.00005-10 μM) was monitored using an assay in which 0.2 nM of SHP2 was incubated with 0.5 μM of Activating Peptide 1 (sequence: H2N-LN(pY)IDLDLV(dPEG8)LST(pY)ASINFQK-amide) or Activating Peptide 2 (sequence: H2N-LN(pY)AQLWHA(dPEG8)LTI(pY)ATIRRF-amide). After 30-60-minutes incubation at 25° C., the surrogate substrate DiFMUP (Invitrogen, Cat #D6567) was added to the reaction and activity was determined by a kinetic read using a microplate reader (Envision, Perkin-Elmer or Spectramax M5, Molecular Devices). The excitation and emission wavelengths were 340 nm and 450 nm, respectively. Initial rates were determined from a linear fit of the data, and the inhibitor dose response curves were analyzed using normalized IC50 regression curve fitting with control based normalization.

| IC50 [nM] | SMILES |
| --- | --- |
| ≤ 50 | C[C@@H]1OCC2(CCN(c3ccc(Sc4ccnc(N)c4Cl)nc3CO)CC2)[C@@H]1N [Compound 5, [6-[(2-amino-3-chloro-4-pyridyl)sulfanyl]-3-[(3S,4S)-4-amino-3-methyl-2-oxa-8-azaspiro[4.5]decan-8-yl]-2-pyridyl]methanol] |
| 50 to 500 | C[C@@H]1OCC2(CCN(c3ncc(-c4cc5[nH]ncc5cc4Cl)nc3CO)CC2)[C@@H]1N [Compound 14, {3-[(3S,4S)-4-amino-3-methyl-2-oxa-8-azaspiro[4.5]decan-8-yl]-6-(5-chloro-2H-indazol-6-yl)pyrazin-2-yl}methanol] |
| ≤ 50 | C[C@@H]1OCC2(CCN(c3ncc(-c4cccc(Cl)c4Cl)nc3CO)CC2)[C@@H]1N [Compound 21, {3-[(3S,4S)-4-amino-3-methyl-2-oxa-8-azaspiro[4.5]decan-8-yl]-6-(2,3-dichlorophenyl)pyrazin-2-yl}methanol] |
| 50 to 500 | N[C@@H]1CCCC12CCN(c1ncc(-c3cccc(Cl)c3Cl)nc1CO)CC2 [Compound 2, (3-[(1R)-1-amino-8-azaspiro[4.5]decan-8-yl]-6-(2,3-dichlorophenyl)pyrazin-2-yl)methanol] |
| 50 to 500 | C[C@@H]1OCC2(CCN(c3ncc(-c4ccc5c(c4Cl)OCC5)nc3CO)CC2)[C@@H]1N [Compound 10, {3-[(3S,4S)-4-amino-3-methyl-2-oxa-8-azaspiro[4.5]decan-8-yl]-6-(7-chloro-2,3-dihydro-1-benzofuran-6-yl)pyrazin-2-yl}methanol] |

same assay, conditions: 0.2 nM SHP2, 0.5 μM activating peptide, DiFMUP substrate; read-out: SHP2 IC50

| IC50 [nM] | SMILES |
| --- | --- |
| 88 | N[C@@H]1CCCC12CCN(c1ncc(-c3cccc(Cl)c3Cl)nc1CO)CC2 [Compound 2, (3-[(1R)-1-amino-8-azaspiro[4.5]decan-8-yl]-6-(2,3-dichlorophenyl)pyrazin-2-yl)methanol] |
